The target of assay [1] is T1, SCD1 (Homo sapiens, UniProt O00767).
T1 construct: host or cells: Saccharomyces cerevisiae ole1Δ strain (W303 pdr1Δ pdr3Δ background), plasmid pRS316, TDH3 promoter
T1 sequence (O00767 1-359): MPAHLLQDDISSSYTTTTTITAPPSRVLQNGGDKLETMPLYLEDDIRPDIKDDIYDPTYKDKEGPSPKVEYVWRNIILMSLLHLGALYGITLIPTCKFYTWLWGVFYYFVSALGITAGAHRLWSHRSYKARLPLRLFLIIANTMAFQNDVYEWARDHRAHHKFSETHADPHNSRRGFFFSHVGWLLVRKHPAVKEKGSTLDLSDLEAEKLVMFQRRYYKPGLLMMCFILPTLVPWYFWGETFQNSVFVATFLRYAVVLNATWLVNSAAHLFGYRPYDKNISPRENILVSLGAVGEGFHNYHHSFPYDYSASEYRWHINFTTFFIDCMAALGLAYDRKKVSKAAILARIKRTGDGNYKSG
Description: Growth inhibition of yeast (ole1Δ) expressing human SCD1 as the sole desaturase. The format is cell-based. To be noted: read-out: SCD1 IC50.

For assay [2], the target named is T2, SCD5 (Homo sapiens, UniProt Q86SK9).
T2 construct: host or cells: Saccharomyces cerevisiae ole1Δ strain (W303 pdr1Δ pdr3Δ background), plasmid pRS316, TDH3 promoter
T2 sequence (Q86SK9 1-330): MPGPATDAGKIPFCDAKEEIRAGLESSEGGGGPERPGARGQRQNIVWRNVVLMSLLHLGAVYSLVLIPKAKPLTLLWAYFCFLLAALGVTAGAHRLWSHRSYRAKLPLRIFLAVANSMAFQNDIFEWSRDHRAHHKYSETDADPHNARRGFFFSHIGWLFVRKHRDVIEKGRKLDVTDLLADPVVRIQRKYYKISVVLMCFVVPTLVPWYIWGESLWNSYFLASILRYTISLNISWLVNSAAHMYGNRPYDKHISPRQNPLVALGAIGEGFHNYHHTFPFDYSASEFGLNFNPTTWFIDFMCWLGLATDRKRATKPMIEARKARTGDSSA
Briefly: Growth inhibition of yeast (ole1Δ) expressing human SCD5 as the sole desaturase. The format is cell-based. The settings on record: read-out: SCD5 IC50.

Setting [3] is: yeast strain with SCD1 plasmid, OD600 growth read at 40 h.
[4] abbreviates: yeast strain with SCD5 plasmid, OD600 growth read at 40 h.

Where two headings read alike, the source gives them in different places.

As for `Cn1nc(NC(=O)N2CCC[C@@H](c3ccc(Cl)cc3)CC2)ccc1=O` [Compound 31], the IC50 in assay [1] (setting [3]) is 39000 nM; in assay [2] (setting [4]), > 45000 nM.

As for `Cn1nc(NC(=O)N2CCC[C@@H](c3cc(F)cc(F)c3)CC2)ccc1=O` [Compound 32], the IC50 in assay [1] (setting [3]) amounted to 7200 nM; in assay [2] (setting [4]), 21000 nM.

For `Cn1nc(NC(=O)N2CCC(=Cc3cc(F)cc(F)c3)CC2)ccc1=O` [Compound 33, 4-(3,5-difluorobenzylidene)-N-(1-methyl-6-oxo-1,6-dihydropyridazin-3-yl)piperidine-1-carboxamide], the IC50 is 440 nM in assay [1] (setting [3]) and 140 nM in assay [2] (setting [4]).

For the compound `O=C(Cc1ccc(=O)[nH]n1)N1CCC(Cc2cccc(Cl)c2)CC1` [Compound 34], the figures for the IC50 in assay [1] (setting [3]) and in assay [2] (setting [4]) were > 45000 nM and 8200 nM, respectively.

As to `O=C(Cc1ccc(=O)[nH]n1)N1CCC(Cc2cc(F)cc(F)c2)CC1` [Compound 35], the half-maximal inhibitory concentration (IC50) in assay [1] (setting [3]) was > 45000 nM; in assay [2] (setting [4]), 20400 nM.

Take `O=C(Cc1ccc(=O)[nH]n1)N1CCC(Oc2cccc(Cl)c2)CC1` [Compound 36, 6-(2-(4-(3-chlorophenoxy)piperidin-1-yl)-2-oxoethyl)pyridazin-3(2H)-one]: the values for the IC50 in assay [1] (setting [3]) and in assay [2] (setting [4]) were 25500 nM and 5350 nM, respectively.

`Cn1nc(CC(=O)N2CCC(Cc3cccc(Cl)c3)CC2)ccc1=O` [Compound 37, 6-(2-(4-(3-chlorobenzyl)piperidin-1-yl)-2-oxoethyl)-2-methylpyridazin-3(2H)-one]: the IC50 came to 12700 nM in assay [1] (setting [3]) and 4360 nM in assay [2] (setting [4]).

In the case of `Cn1nc(CC(=O)N2CCC(Cc3cc(F)cc(F)c3)CC2)ccc1=O` [Compound 38, 6-(2-(4-(3,5-difluorobenzyl)piperidin-1-yl)-2-oxoethyl)-2-methylpyridazin-3(2H)-one], the IC50 in assay [1] (setting [3]) is 17200 nM; in assay [2] (setting [4]), 6370 nM.

On to `Cn1nc(CC(=O)N2CCC(Oc3cccc(Cl)c3)CC2)ccc1=O` [Compound 39], for which the IC50 came out at 1350 nM in assay [1] (setting [3]) and 1380 nM in assay [2] (setting [4]).

Regarding `Cn1nc(NC(=O)N2CCC(Cc3cccc(F)c3)CC2)ccc1=O` [Compound 41, 4-(3-fluorobenzyl)-N-(1-methyl-6-oxo-1,6-dihydropyridazin-3-yl)piperidine-1-carboxamide], the IC50 in assay [1] (setting [3]) turned out to be 2710 nM; in assay [2] (setting [4]) it was 140 nM.

`Cn1nc(NC(=O)N2CCC(Cc3ccc(Cl)cc3)CC2)ccc1=O` [Compound 43]: the IC50 in assay [1] (setting [3]) stood at 8580 nM; in assay [2] (setting [4]) it was 2240 nM.

As to `Cn1nc(NC(=O)N2CCC(Cc3ccc(F)cc3)CC2)ccc1=O` [Compound 44, 4-(4-fluorobenzyl)-N-(1-methyl-6-oxo-1,6-dihydropyridazin-3-yl)piperidine-1-carboxamide], the IC50 in assay [1] is 2210 nM; in assay [2], 1170 nM.

As for `Cn1nc(NC(=O)N2CCC(F)(Cc3cccc(F)c3)CC2)ccc1=O` [Compound 45, 4-fluoro-4-(3-fluorobenzyl)-N-(1-methyl-6-oxo-1,6-dihydropyridazin-3-yl)piperidine-1-carboxamide], the IC50 in assay [1] (setting [3]) was 1680 nM; in assay [2] (setting [4]), 220 nM.

Regarding `Cn1nc(NC(=O)N2CCC(F)(Cc3cccc(Cl)c3)CC2)ccc1=O` [Compound 46], the IC50 worked out at 640 nM in assay [1] (setting [3]) and 30 nM in assay [2] (setting [4]).

Regarding `Cn1nc(NC(=O)N2CCC(O)(Cc3cccc(F)c3)CC2)ccc1=O` [Compound 47, 4-(3-fluorobenzyl)-4-hydroxy —N-(1-methyl-6-oxo-1,6-dihydropyridazin-3-yl)piperidine-1-carboxamide], the IC50 in assay [1] (setting [3]) and in assay [2] (setting [4]) was > 45000 nM each time.

As to `COC1(Cc2cccc(F)c2)CCN(C(=O)Nc2ccc(=O)n(C)n2)CC1` [Compound 48, 4-(3-fluorobenzyl)-4-methoxy —N-(1-methyl-6-oxo-1,6-dihydropyridazin-3-yl)piperidine-1-carboxamide], the IC50 in assay [1] (setting [3]) and in assay [2] (setting [4]) was > 45000 nM each time.

Regarding `Cn1nc(NC(=O)N2CCC(Cc3ccc(F)c(F)c3)CC2)ccc1=O` [Compound 49, 4-(3,4-difluorobenzyl)-N-(1-methyl-6-oxo-1,6-dihydropyridazin-3-yl)piperidine-1-carboxamide], the IC50 turned out to be 8100 nM in assay [1] (setting [3]) and 430 nM in assay [2] (setting [4]).

Take `Cn1nc(NC(=O)N2CCC(Cc3cc(F)cc(C#N)c3)CC2)ccc1=O` [Compound 50]: the half-maximal inhibitory concentration (IC50) was 17100 nM in assay [1] (setting [3]) and 2460 nM in assay [2] (setting [4]).

For `Cn1nc(NC(=O)N2CCC(Cc3ccc(Cl)c(F)c3)CC2)ccc1=O` [Compound 52, 4-(4-chloro-3-fluorobenzyl)-N-(1-methyl-6-oxo-1,6-dihydropyridazin-3-yl)piperidine-1-carboxamide], the results for the IC50 in assay [1] (setting [3]) and in assay [2] (setting [4]) were 2400 nM and 330 nM, respectively.

For `Cn1nc(NC(=O)N2CCC(Cc3cc(F)ccc3F)CC2)ccc1=O` [Compound 53], the IC50 in assay [1] (setting [3]) amounted to 1180 nM; in assay [2] (setting [4]), 130 nM.

Regarding `Cn1nc(NC(=O)N2CCC(Cc3ccc(F)c(Cl)c3)CC2)ccc1=O` [Compound 54, 4-(3-chloro-4-fluorobenzyl)-N-(1-methyl-6-oxo-1,6-dihydropyridazin-3-yl)piperidine-1-carboxamide], the IC50 in assay [1] (setting [3]) was 440 nM; in assay [2] (setting [4]), 40 nM.

`Cn1nc(NC(=O)N2CCC(Cc3cc(F)cc(Cl)c3)CC2)ccc1=O` [Compound 55, 4-(3-chloro-5-fluorobenzyl)-N-(1-methyl-6-oxo-1,6-dihydropyridazin-3-yl)piperidine-1-carboxamide]: the figures for the IC50 in assay [1] (setting [3]) and in assay [2] (setting [4]) were 160 nM and 20 nM, respectively.

Regarding `Cn1nc(NC(=O)N2CCC(Cc3cccc(C#N)c3Cl)CC2)ccc1=O` [Compound 56, 4-(2-chloro-3-cyanobenzyl)-N-(1-methyl-6-oxo-1,6-dihydropyridazin-3-yl)piperidine-1-carboxamide], the IC50 in assay [1] (setting [3]) and in assay [2] (setting [4]) was > 45000 nM in each case.

On to `Cn1nc(NC(=O)N2CCC(Cc3cc(Cl)cc(C#N)c3)CC2)ccc1=O` [Compound 57, 4-(3-chloro-5-cyanobenzyl)-N-(1-methyl-6-oxo-1,6-dihydropyridazin-3-yl)piperidine-1-carboxamide], for which the IC50 was determined as 9200 nM in assay [1] (setting [3]) and 2600 nM in assay [2] (setting [4]).

Take `Cn1nc(NC(=O)N2CCC(Cc3ccc(F)c(C#N)c3)CC2)ccc1=O` [Compound 58, 4-(3-cyano-4-fluorobenzyl)-N-(1-methyl-6-oxo-1,6-dihydropyridazin-3-yl)piperidine-1-carboxamide]: the IC50 was > 45000 nM in assay [1] (setting [3]) and 10400 nM in assay [2] (setting [4]).

Regarding `Cn1nc(NC(=O)N2CCC(F)(Cc3cc(F)cc(F)c3)CC2)ccc1=O` [Compound 59, 4-(3,5-difluorobenzyl)-4-fluoro —N-(1-methyl-6-oxo-1,6-dihydropyridazin-3-yl)piperidine-1-carboxamide], the IC50 in assay [1] (setting [3]) is > 45000 nM; in assay [2] (setting [4]) it was 11000 nM.

Consider `Cn1nc(NC(=O)N2CCC(F)(Cc3ccc(F)c(F)c3)CC2)ccc1=O` [Compound 60, 4-(3,4-difluorobenzyl)-4-fluoro —N-(1-methyl-6-oxo-1,6-dihydropyridazin-3-yl)piperidine-1-carboxamide], for which the values for the 50% inhibitory concentration (IC50) in assay [1] (setting [3]) and in assay [2] (setting [4]) were 3900 nM and 1100 nM, respectively.

Turning to `Cn1nc(NC(=O)N2CCC(Cc3cc(F)c(F)cc3Cl)CC2)ccc1=O` [Compound 61, 4-(2-chloro-4,5-difluorobenzyl)-N-(1-methyl-6-oxo-1,6-dihydropyridazin-3-yl)piperidine-1-carboxamide], the values for the IC50 in assay [1] (setting [3]) and in assay [2] (setting [4]) were 80 nM and 40 nM, respectively.

For `Cn1nc(NC(=O)N2CCC(Cc3cc(F)c(F)c(F)c3)CC2)ccc1=O` [Compound 62, N-(1-methyl-6-oxo-1,6-dihydropyridazin-3-yl)-4-(3,4,5-trifluorobenzyl)piperidine-1-carboxamide], the IC50 in assay [1] (setting [3]) is 390 nM; in assay [2] (setting [4]), 20 nM.

Regarding `Cn1nc(NC(=O)N2CCC(Cc3cc(F)c(F)c(Cl)c3)CC2)ccc1=O` [Compound 63, 4-(3-chloro-4,5-difluorobenzyl)-N-(1-methyl-6-oxo-1,6-dihydropyridazin-3-yl)piperidine-1-carboxamide], the results for the IC50 in assay [1] (setting [3]) and in assay [2] (setting [4]) were 130 nM and 10 nM, respectively.

Regarding `Cn1nc(NC(=O)N2CCC(Cc3cc(F)cc(F)c3Cl)CC2)ccc1=O` [Compound 64, 4-(2-chloro-3,5-difluorobenzyl)-N-(1-methyl-6-oxo-1,6-dihydropyridazin-3-yl)piperidine-1-carboxamide], the IC50 in assay [1] (setting [3]) was 50 nM; in assay [2] (setting [4]), 10 nM.

For the compound `Cn1nc(NC(=O)N2CCC(Cc3cc(F)c(F)c(C#N)c3)CC2)ccc1=O` [Compound 65, 4-(3-cyano-4,5-difluorobenzyl)-N-(1-methyl-6-oxo-1,6-dihydropyridazin-3-yl)piperidine-1-carboxamide], the 50% inhibitory concentration (IC50) was determined as 8150 nM in assay [1] (setting [3]) and 1490 nM in assay [2] (setting [4]).

In the case of `Cn1nc(NC(=O)N2CCC(F)(Cc3cc(F)c(F)c(Cl)c3)CC2)ccc1=O` [Compound 66, 4-(3-chloro-4,5-difluorobenzyl)-4-fluoro —N-(1-methyl-6-oxo-1,6-dihydropyridazin-3-yl)piperidine-1-carboxamide], the IC50 in assay [1] (setting [3]) worked out at 6500 nM; in assay [2] (setting [4]), 920 nM.

The values above are taken from US20250034125A1, “COMPOUNDS AND USES THEREOF” (JANSSEN PHARMACEUTICA NV, priority 2019, published 2025).
